For test [1], the target named is T1, Zinc finger protein mex-5 (Caenorhabditis elegans, UniProt Q9XUB2).
T1 sequence (Q9XUB2 whole entry): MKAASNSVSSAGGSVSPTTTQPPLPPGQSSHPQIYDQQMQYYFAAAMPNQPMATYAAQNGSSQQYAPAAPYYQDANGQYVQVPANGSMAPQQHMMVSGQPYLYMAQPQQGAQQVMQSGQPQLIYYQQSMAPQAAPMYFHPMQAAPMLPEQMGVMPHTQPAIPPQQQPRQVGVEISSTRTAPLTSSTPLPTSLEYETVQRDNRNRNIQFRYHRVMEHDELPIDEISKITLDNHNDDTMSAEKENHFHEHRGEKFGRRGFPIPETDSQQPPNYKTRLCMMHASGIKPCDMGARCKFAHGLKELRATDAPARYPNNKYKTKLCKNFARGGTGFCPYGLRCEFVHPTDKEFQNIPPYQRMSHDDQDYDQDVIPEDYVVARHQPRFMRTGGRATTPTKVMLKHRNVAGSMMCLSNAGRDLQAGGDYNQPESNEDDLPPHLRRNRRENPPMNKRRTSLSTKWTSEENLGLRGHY
In words: MEX-5/TCR-2 RNA interaction inhibitors, dose response, biochemical, C. elegans, fluorescence polarization (AID 1960).

The target of test [2] is T2, RNA-binding protein pos-1 (Caenorhabditis elegans, UniProt G5EF15).
T2 sequence (G5EF15 whole entry): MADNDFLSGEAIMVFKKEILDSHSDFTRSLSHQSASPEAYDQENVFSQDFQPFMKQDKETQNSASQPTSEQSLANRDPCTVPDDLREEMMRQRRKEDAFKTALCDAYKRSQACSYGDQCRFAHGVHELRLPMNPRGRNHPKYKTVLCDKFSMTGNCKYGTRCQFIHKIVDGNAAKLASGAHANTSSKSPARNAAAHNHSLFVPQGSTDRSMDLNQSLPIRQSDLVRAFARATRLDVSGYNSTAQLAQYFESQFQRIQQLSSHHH
In words: inhibitors of POS-1/mex-3 RNA binding, dose response, biochemical, fluorescence polarization (AID 1964).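 Further: purified POS-1 fused to maltose binding protein made in E. coli; potency of compounds blocking POS-1 binding to fluorescent RNA.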

A further test has as its target T3, Protein skinhead-1 (Caenorhabditis elegans, UniProt P34707).
T3 sequence (P34707 whole entry): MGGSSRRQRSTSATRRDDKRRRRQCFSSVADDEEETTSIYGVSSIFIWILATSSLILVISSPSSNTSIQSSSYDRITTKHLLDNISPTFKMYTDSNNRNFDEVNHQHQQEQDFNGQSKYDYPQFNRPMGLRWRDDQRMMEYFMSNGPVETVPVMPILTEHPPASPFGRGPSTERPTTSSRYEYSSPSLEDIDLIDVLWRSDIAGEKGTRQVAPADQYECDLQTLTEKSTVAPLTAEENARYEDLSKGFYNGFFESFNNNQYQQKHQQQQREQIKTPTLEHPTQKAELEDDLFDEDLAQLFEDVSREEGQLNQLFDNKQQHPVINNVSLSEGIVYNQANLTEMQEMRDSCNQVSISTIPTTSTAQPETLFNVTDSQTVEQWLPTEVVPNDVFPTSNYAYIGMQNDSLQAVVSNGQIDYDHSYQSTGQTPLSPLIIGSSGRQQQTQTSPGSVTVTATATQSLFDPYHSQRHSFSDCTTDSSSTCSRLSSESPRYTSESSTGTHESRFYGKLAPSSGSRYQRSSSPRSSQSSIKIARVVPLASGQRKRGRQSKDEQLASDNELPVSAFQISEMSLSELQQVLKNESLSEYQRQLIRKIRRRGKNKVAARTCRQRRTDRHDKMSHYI
Type of test: functional.

A short description of test [3]: P. falciparum Dd2 growth inhibitors, dose response, SYBR Green, cherry-picked samples (AID 1159567). Type of test: functional, cell-based.
The target in another test is Cytochrome P450 2C9 (Homo sapiens, UniProt P11712).
Sequence of Cytochrome P450 2C9 (P11712 whole entry): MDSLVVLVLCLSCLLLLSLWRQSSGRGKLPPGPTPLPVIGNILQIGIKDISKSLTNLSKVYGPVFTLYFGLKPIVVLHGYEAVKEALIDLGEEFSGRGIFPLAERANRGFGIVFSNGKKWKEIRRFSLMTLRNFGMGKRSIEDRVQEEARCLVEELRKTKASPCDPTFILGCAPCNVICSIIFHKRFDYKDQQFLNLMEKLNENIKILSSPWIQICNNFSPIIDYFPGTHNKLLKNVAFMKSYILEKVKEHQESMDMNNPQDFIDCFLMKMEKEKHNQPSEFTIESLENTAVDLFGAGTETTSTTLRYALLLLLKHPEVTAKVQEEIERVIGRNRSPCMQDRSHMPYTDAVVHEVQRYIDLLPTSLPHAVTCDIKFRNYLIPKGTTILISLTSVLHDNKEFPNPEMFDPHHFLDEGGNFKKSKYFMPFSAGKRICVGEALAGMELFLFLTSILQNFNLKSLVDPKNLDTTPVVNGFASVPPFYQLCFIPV
The next test addresses Cytochrome P450 2C19 (Homo sapiens, UniProt P33261). The experiment in a line: Cytochrome panel assay with activity outcomes. Panel member name: p450-cyp2c19 Compounds with AC50 equal or less than 10 uM are considered active. Type of test: functional. The conditions noted are these: read-out: AC50.
The next test addresses T4, Cytochrome P450 1A2 (Homo sapiens, UniProt P05177).
T4 sequence (P05177 whole entry): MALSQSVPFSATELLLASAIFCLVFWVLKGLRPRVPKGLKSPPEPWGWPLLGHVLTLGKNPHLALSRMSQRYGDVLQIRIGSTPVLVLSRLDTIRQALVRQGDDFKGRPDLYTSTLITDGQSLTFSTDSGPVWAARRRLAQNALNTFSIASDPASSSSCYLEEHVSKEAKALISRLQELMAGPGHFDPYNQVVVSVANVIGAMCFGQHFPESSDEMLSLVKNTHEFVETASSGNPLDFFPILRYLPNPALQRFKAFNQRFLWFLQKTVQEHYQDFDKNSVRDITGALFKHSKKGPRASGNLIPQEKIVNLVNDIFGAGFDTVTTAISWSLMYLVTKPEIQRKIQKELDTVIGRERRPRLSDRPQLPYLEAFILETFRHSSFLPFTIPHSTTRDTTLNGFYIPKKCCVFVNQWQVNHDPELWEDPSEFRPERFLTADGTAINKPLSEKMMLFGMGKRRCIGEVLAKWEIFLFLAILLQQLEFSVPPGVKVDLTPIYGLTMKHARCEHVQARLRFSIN

A short description of test [4]: Luminescence Cell-Based Dose Confirmation HTS to Identify Activators of 5'UTR Stem-Loop Driven Alpha-Synuclein mRNA Translation in H4 Neuroglioblastoma Cells. [Related pubchem assays: 1829 (Project Summary), 1814 (Primary HTS)]. The class given is functional.
Test [5] is described as follows: Luminescence Cell-Based Dose Response HTS to Identify Activators of Luciferase Translation or Activity in H4 […] Cells. [Related pubchem assays: 1829 (Project Summary), 1814 (Primary HTS)]. Type of test: functional.
Another test concerns INS1. In words: beta cell apoptosis inhibitors, cytokine rescue, dose response, luminescence, retest (AID 449756).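 Further: cell death triggered by IL-1 beta plus TNF-alpha plus IFN-gamma mixture; protective hits raise ATP signal compared with cytokine alone wells.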 Type of test: functional, cell-based. Particulars: Rattus norvegicus.
For test [6], the target named is T5, Rac GTPase-activating protein 1 (Homo sapiens, UniProt Q9H0H5).
T5 sequence (Q9H0H5 whole entry): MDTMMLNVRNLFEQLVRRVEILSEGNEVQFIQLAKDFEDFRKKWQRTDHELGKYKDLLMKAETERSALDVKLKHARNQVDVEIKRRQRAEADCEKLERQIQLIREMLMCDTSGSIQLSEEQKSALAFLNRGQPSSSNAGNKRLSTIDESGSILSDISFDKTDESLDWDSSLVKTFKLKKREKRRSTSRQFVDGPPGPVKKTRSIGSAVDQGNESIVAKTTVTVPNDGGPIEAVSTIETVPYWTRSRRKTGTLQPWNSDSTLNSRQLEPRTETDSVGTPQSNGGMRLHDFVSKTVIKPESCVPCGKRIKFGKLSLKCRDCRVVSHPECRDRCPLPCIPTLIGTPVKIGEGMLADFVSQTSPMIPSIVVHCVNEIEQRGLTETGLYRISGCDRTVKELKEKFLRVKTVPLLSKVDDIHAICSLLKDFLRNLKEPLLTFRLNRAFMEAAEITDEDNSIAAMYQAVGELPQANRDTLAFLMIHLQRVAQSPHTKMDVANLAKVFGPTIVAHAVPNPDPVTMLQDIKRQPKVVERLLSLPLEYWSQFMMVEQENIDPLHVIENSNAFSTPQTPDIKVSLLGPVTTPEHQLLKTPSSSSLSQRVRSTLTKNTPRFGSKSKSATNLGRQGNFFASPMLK
In words: MgcRacGAP GTPase-activating activity inhibitors, confirmation, biochemical, ADP Hunter fluorescence, primary and confirmatory (AID 624330). The class given is functional.

Calls of active or inactive are those of the source. Where only a bound is given, the exact number is not on record here.

Sequence of Cytochrome P450 2C19 (P33261 whole entry): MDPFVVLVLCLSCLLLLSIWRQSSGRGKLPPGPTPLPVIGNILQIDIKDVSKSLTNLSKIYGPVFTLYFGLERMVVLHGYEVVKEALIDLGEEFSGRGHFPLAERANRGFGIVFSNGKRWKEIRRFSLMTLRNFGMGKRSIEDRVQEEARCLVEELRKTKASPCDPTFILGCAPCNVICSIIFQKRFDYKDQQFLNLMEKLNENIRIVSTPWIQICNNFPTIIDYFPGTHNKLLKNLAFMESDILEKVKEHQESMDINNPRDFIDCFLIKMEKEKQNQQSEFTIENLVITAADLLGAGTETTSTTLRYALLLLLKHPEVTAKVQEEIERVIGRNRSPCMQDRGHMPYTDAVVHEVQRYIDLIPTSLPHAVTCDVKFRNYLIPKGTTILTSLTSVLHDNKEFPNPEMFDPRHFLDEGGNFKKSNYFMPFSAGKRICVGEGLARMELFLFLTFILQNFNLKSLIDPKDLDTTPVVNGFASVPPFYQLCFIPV

As for `O=C(N/N=C\c1cc([N+](=O)[O-])ccc1N1CCCC1)c1ccccn1`, the results for the EC50 in test [1] and in test [2] were 70.5 µM (inconclusive) and 149 µM (inconclusive), respectively. With `COc1ccccc1-c1cnn2c(NCc3ccccc3)cc(C)nc12`, the EC50 in test [1] and in test [2] was > 300 µM (not active) throughout. In the case of `Cc1ccc(NC(=O)CSCc2cc(=O)n3ccsc3n2)cc1`, the IC50 at Protein skinhead-1 was > 100 µM (inactive). Take `CC1(OC(=O)c2cccs2)C(=O)C=C2C=C(c3ccc(C#N)cc3)OC=C2C1=O` (stereo not drawn): the EC50 is 31.3 µM (active) in test [1] and 93.2 µM (active) in [2]. Take `O=C(C[C@@H]1C[C@H]2c3cc(NS(=O)(=O)c4ccc(F)cc4)ccc3O[C@H]2[C@H](CO)O1)N1CCc2ccccc2C1`: the AC50 in [3] is 9.73 µM (active). Regarding `CCNC(=O)CC1C(=O)N(c2ccc(F)cc2)C(=O)N1CCc1ccc(OC)cc1` (stereo not drawn), the AC50 at Cytochrome P450 2C9 was 0.282 µM (inconclusive); at Cytochrome P450 2C19, 8.91 µM (inconclusive). For `COC(=O)c1ccc(Nc2cc(C)nc3ncnn23)cc1`, the IC50 on Protein skinhead-1 was > 100 µM (inactive). On the same count and under the same terms, the same measure for `O=C(c1cccnc1)C1Cc2ccccc2C1=O` (stereo not drawn): > 100 µM (inactive). In the case of `O=C(O)CCCCCNC(=O)c1ccncc1`, the AC50 at Cytochrome P450 2C9 is 25.1 µM (inconclusive); on Cytochrome P450 1A2, 0.01 µM (inconclusive); on Cytochrome P450 2C19 it was 39.8 µM (inconclusive). Regarding `Cc1ccc(-c2ccccc2)n1-c1ccc(C(=O)O)cc1`, the half-maximal effective concentration (EC50) in test [1] and in test [2] was > 300 µM (not active) throughout. As for `c1ccc(-c2noc(-c3cccc4ccccc34)n2)cc1`, the IC50 on Protein skinhead-1 is 18.8 µM (active). With `O=C(CN1C(=O)NC2(CCCCCC2)C1=O)c1ccc2c(c1)OCCO2`, the EC50 was 4.64 µM (active) in [4] and 0.676 µM (active) in test [5]. As for `CCCn1nc2cc(C(=O)NCc3ccc(OC(F)(F)F)cc3)ccc2c1OCC`, the IC50 at Protein skinhead-1 is 16.4 µM (active). In the case of `Cc1ccccc1/C=C1\CCCc2ccccc2C1=O`, the results for the EC50 in test [4] and in [5] were 0.172 µM (active) and 0.328 µM (active), respectively. As for `COCC(=O)Nc1ccc2c(c1)C(=O)N(C)C[C@H](OC)[C@H](C)CN(Cc1cc(F)ccc1F)[C@H](C)CO2`, the half-maximal activity concentration (AC50) in test [3] was 3.74 µM (active).

As to `CCN(CC(=O)Nc1ccccc1C(F)(F)F)C(=O)c1ccc(NC(=O)c2cccs2)cc1`, the IC50 at Protein skinhead-1 was > 100 µM (inactive). In the case of `CCCNC(=O)N1[C@H](C#N)[C@@H](c2ccccc2C2=CCCC2)[C@@H]1CO`, in test [3], the AC50 is 7.07 µM (active). Consider `CCC(=O)c1ccc(OCC(O)CN2CCN(S(=O)(=O)N3CCCCC3)CC2)cc1` (stereo not drawn), for which the IC50 at Protein skinhead-1 was > 100 µM (inactive). For `Clc1ccc(OCCCCCN2CCOCC2)cc1`, the IC50 on Protein skinhead-1 is 53.9 µM (inactive). On to `O=C(C1=C[C@@H](c2ccc(C(F)(F)F)cc2)C[C@@H](OCCCCO)O1)N1CCN(Cc2ccccc2)CC1`, for which the half-maximal activity concentration (AC50) with INS1 was 5.94 µM (active). The same measure, in the same setting: the same measure for `COc1ccc([C@H]2CC(=O)C=C(c3ccnc4ccc(Cl)cc34)C2)cc1`: 2.64 µM (active). As for `CCCCn1nnnc1NCc1ccc(C)s1`, the IC50 at Protein skinhead-1 is > 100 µM (inactive).

Consider `COc1nnc(-c2ccc(N3CCCCC3)c(NC(=O)C3CCCCC3)c2)c2ccccc12`, for which the AC50 with INS1 was 6.09 µM (active). In the case of `COc1cc(CC(=O)OC2CCOC2=O)cc(OC)c1OC` (stereo not drawn), the half-maximal activity concentration (AC50) at Cytochrome P450 2C9 was 39.8 µM (inconclusive); on Cytochrome P450 2C19, 8.91 µM (inconclusive). On to `COc1cc(C2C3CN(C)CC=C3C(C#N)=C(N)C2(C#N)C#N)ccc1OC(C)C` (stereo not drawn), for which the EC50 is 31.3 µM (active) in test [1] and > 300 µM (inconclusive) in [2]. Consider `COc1ccccc1-c1ccc([C@@H]2[C@@H](CO)N3CCCCN(C(=O)c4ccncc4)C[C@@H]23)cc1`, for which the AC50 in test [3] is 14.1 µM (active). On to `CC(=O)n1c(/C=N/c2ccccc2)c(O)c2ccccc21`, for which the EC50 in [1] and in [2] was > 300 µM (not active) throughout. Consider `Cc1oc(-c2ccccc2)cc1C(=O)Nc1ccc(N(C)C)cc1`, for which the AC50 on Cytochrome P450 2C9 is 25.1 µM (inconclusive). Besides, the IC50 in [6] is 62.3 µM (active). Take `C=CCOc1ccc(C2OC34CCCCC3C(C#N)(C#N)C2(C#N)C(=N)O4)cc1` (stereo not drawn): the EC50 in [1] is 9.41 µM (active); in test [2], 12.5 µM (active). Regarding `CC(C)c1cccc(C(C)C)c1OC(=O)[C@H]1OC(C(C)(C)C)=C[C@@H]1c1ccccc1`, in the test on INS1, the AC50 is 7.46 µM (active). On to `CCN(CC)c1nc(C)nc2c1cnn2CCc1ccccc1`, for which the EC50 is 85.2 µM (active) in test [4] and 92.1 µM (active) in [5]. In the case of `O=C(CSc1nnc(CN2CCOCC2)n1-c1ccc(Cl)cc1)N1CCc2ccccc21`, the IC50 at Protein skinhead-1 was > 100 µM (inactive). In the case of `O=C(Nc1cc(-c2ccccc2)nn1C1CCCCC1)c1ccc(Cl)cc1`, the AC50 in the test on INS1 is 5.2 µM (active).
